The record followed here is PubChem BioAssay (NCI).

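Briefly, cells in 96-well plates were exposed to five compound concentrations for 48 h, and endpoints were estimated by linear interpolation. The concentration for full growth arrest is given as TGI.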 Where only a bound is given, the exact number is not on record here.

The first experiment concerns MDA-MB-435. Briefly: inhibition of tumour cell growth, NCI panel, 48 h.
For the molecule `COc1cc2nc3n(c(=O)c2cc1OC)-c1ccc([N+](=O)[O-])cc1C3=O`, the TGI was 40.1 µM.

Molecule `NC(N)=N/N=C/c1c(-c2ccc(N)cc2)nc2sccn12` showed a TGI of 94 µM.

As for `COc1cc(Br)cc2cc(-c3cn4ccsc4n3)c(=O)oc12`, the TGI was found to be 51.2 µM.

The molecule `COc1ccc(N/N=C2\CCOc3ccc(C)cc3C2=O)cc1` displayed a TGI of 15.4 µM.

Take `COC(=O)c1c(C)cccc1C1CN=NC12Cc1ccc(C)cc1C2=O` (stereo unspecified): the TGI was over 100 µM.

Turning to `ClCCN1CCC2(CC1)SSC1(CCN(CCCl)CC1)S2`, the TGI is over 100 µM.

For `C=CC1(C)CCC2C(=CCC3C2(C)CC(O)C(O)C3(C)COC2OC(C(=O)O)C(O)C(O)C2O)C1` (stereo unspecified) (tested in a mixture with another compound), the TGI is over 100 µM.

On to `C=C1C(=O)O[C@@H]2C(=O)[C@@H](C)CCC/C(C)=C/CC[C@@]3(C)O[C@@H]3C[C@@H]12`, for which the TGI is over 100 µM.

`Nc1nc(SCCc2ccccc2)c2[nH]cnc2n1` showed a TGI of over 100 µM.

Turning to `Cc1ccccc1C(=O)N1CCc2c([nH]c3ccccc23)C1`, the TGI stood at 37.3 µM.

`Cc1nc2n(c1/C=C1/C(=O)Nc3cccc(Cl)c31)CCS2` yielded a TGI of over 100 µM.

`O=C1CC(NC(=O)C(F)(F)F)c2c(Br)sc(N3CCNCC3)c21` (stereo unspecified) returned a TGI of over 100 µM.

The next experiment relates to UO-31 renal. The experiment is described as follows: inhibition of tumour cell growth, NCI panel, 48 h.
Molecule `CC(=O)NC(Cc1ccc(O)cc1)C(=O)O` (stereo unspecified) gave a TGI of over 100 µM.

As for `O=C1CSC(c2ccc(Cl)cc2)N1c1ccc(Oc2ccc(Cl)cc2)c(Cl)c1` (stereo unspecified), the TGI was 21 µM.

In turn, `COC(=O)C([C@H](NC1(c2ccccc2)c2ccccc2-c2ccccc21)C(=O)OC)N(NC(=O)OCc1ccccc1)C(=O)OCc1ccccc1` (mixture of isomers) registered a TGI of over 100 µM.

Turning to `CC[C@@H]1CC[C@@H]2[C@H](CC[C@]3(C)[C@@H](OC(C)=O)CC[C@@H]23)[C@H]1COC(C)=O`, the TGI is over 100 µM.

The molecule `Cc1ccc(N=NC(=Nc2ccccc2)c2ccc(N(CCC#N)CCC#N)cc2)cc1` returned a TGI of over 100 µM.

`O=c1ccc(-c2ccccc2)n[nH]1` gave a TGI of over 100 µM.

`CC(=O)O[C@@H]1[C@H](C(C)C)[C@@H](OC(C)=O)C/C(C)=C/CC[C@]2(C)O[C@@H]12` returned a TGI of over 100 µM.

Molecule `CN1CCc2cc(N)cc3c2C1Cc1ccc(O)c(O)c1-3` (stereo unspecified) yielded a TGI of 95.9 µM.

Consider `CC(C)=CCc1c2c(c3occ(-c4ccc(O)cc4)c(=O)c3c1O)CC(C(C)(C)O)O2` (stereo unspecified), for which the TGI was determined as 22.2 µM.

Regarding `CC1(C)N=[N+]([O-])C1(C)C`, the TGI was over 100 µM.

In turn, `COc1ccc(C2CC(c3c(O)ccc4ccccc34)=NN2C(C)=O)cc1OC` (stereo unspecified) had a TGI of 83.3 µM.

`C1CN(c2nc3c(nnc4nc(N5CCOCC5)sc43)s2)CCO1` displayed a TGI of over 100 µM.

In turn, `COc1cc2nc3n(c(=O)c2cc1OC)-c1ccc([N+](=O)[O-])cc1C3=O` returned a TGI of 35 µM.

Consider `NC(N)=N/N=C/c1c(-c2ccc(N)cc2)nc2sccn12`, for which the TGI turned out to be 39.2 µM.

Take `COc1cc(Br)cc2cc(-c3cn4ccsc4n3)c(=O)oc12`: the TGI is over 100 µM.

The molecule `COc1ccc(N/N=C2\CCOc3ccc(C)cc3C2=O)cc1` yielded a TGI of over 100 µM.

For the molecule `COC(=O)c1c(C)cccc1C1CN=NC12Cc1ccc(C)cc1C2=O` (stereo unspecified), the TGI was over 100 µM.

`ClCCN1CCC2(CC1)SSC1(CCN(CCCl)CC1)S2` had a TGI of over 100 µM.

`C=CC1(C)CCC2C(=CCC3C2(C)CC(O)C(O)C3(C)COC2OC(C(=O)O)C(O)C(O)C2O)C1` (stereo unspecified) (tested in a mixture with another compound) registered a TGI of over 100 µM.

Regarding `C=C1C(=O)O[C@@H]2C(=O)[C@@H](C)CCC/C(C)=C/CC[C@@]3(C)O[C@@H]3C[C@@H]12`, the TGI was over 100 µM.

Molecule `Nc1nc(SCCc2ccccc2)c2[nH]cnc2n1` gave a TGI of over 100 µM.

As to `Cc1ccccc1C(=O)N1CCc2c([nH]c3ccccc23)C1`, the TGI was over 100 µM.

`Cc1nc2n(c1/C=C1/C(=O)Nc3cccc(Cl)c31)CCS2` showed a TGI of over 100 µM.

On to `O=C1CC(NC(=O)C(F)(F)F)c2c(Br)sc(N3CCNCC3)c21` (stereo unspecified), for which the TGI is over 100 µM.

The subject of another experiment is HT29 colon. Briefly: inhibition of tumour cell growth, NCI panel, 48 h.
The molecule `CC(=O)NC(Cc1ccc(O)cc1)C(=O)O` (stereo unspecified) had a TGI of over 100 µM.

The molecule `O=C1CSC(c2ccc(Cl)cc2)N1c1ccc(Oc2ccc(Cl)cc2)c(Cl)c1` (stereo unspecified) had a TGI of 36.3 µM.

As to `COC(=O)C([C@H](NC1(c2ccccc2)c2ccccc2-c2ccccc21)C(=O)OC)N(NC(=O)OCc1ccccc1)C(=O)OCc1ccccc1` (mixture of isomers), the TGI was over 100 µM.

In the case of `CC[C@@H]1CC[C@@H]2[C@H](CC[C@]3(C)[C@@H](OC(C)=O)CC[C@@H]23)[C@H]1COC(C)=O`, the TGI amounted to 39.5 µM.

Molecule `Cc1ccc(N=NC(=Nc2ccccc2)c2ccc(N(CCC#N)CCC#N)cc2)cc1` had a TGI of over 100 µM.

For `O=c1ccc(-c2ccccc2)n[nH]1`, the TGI is over 100 µM.

Turning to `CC(=O)O[C@@H]1[C@H](C(C)C)[C@@H](OC(C)=O)C/C(C)=C/CC[C@]2(C)O[C@@H]12`, the TGI was over 100 µM.

For the molecule `CN1CCc2cc(N)cc3c2C1Cc1ccc(O)c(O)c1-3` (stereo unspecified), the TGI is over 100 µM.

`CC(C)=CCc1c2c(c3occ(-c4ccc(O)cc4)c(=O)c3c1O)CC(C(C)(C)O)O2` (stereo unspecified) registered a TGI of 25.8 µM.

Take `CC1(C)N=[N+]([O-])C1(C)C`: the TGI is over 100 µM.

Molecule `COc1ccc(C2CC(c3c(O)ccc4ccccc34)=NN2C(C)=O)cc1OC` (stereo unspecified) returned a TGI of over 100 µM.

`C1CN(c2nc3c(nnc4nc(N5CCOCC5)sc43)s2)CCO1` had a TGI of over 100 µM.

On to `COc1cc2nc3n(c(=O)c2cc1OC)-c1ccc([N+](=O)[O-])cc1C3=O`, for which the TGI is over 100 µM.

Molecule `NC(N)=N/N=C/c1c(-c2ccc(N)cc2)nc2sccn12` showed a TGI of 56.8 µM.

`COc1cc(Br)cc2cc(-c3cn4ccsc4n3)c(=O)oc12` gave a TGI of over 100 µM.

`COc1ccc(N/N=C2\CCOc3ccc(C)cc3C2=O)cc1` came in with a TGI of 61.1 µM.

`COC(=O)c1c(C)cccc1C1CN=NC12Cc1ccc(C)cc1C2=O` (stereo unspecified) came in with a TGI of over 100 µM.

`ClCCN1CCC2(CC1)SSC1(CCN(CCCl)CC1)S2`: the TGI was over 100 µM.

`C=CC1(C)CCC2C(=CCC3C2(C)CC(O)C(O)C3(C)COC2OC(C(=O)O)C(O)C(O)C2O)C1` (stereo unspecified) (tested in a mixture with another compound) yielded a TGI of over 100 µM.

As to `C=C1C(=O)O[C@@H]2C(=O)[C@@H](C)CCC/C(C)=C/CC[C@@]3(C)O[C@@H]3C[C@@H]12`, the TGI stood at 31.1 µM.

For the molecule `Nc1nc(SCCc2ccccc2)c2[nH]cnc2n1`, the TGI was over 100 µM.

`Cc1ccccc1C(=O)N1CCc2c([nH]c3ccccc23)C1`: the TGI was found to be 44.7 µM.

Take `Cc1nc2n(c1/C=C1/C(=O)Nc3cccc(Cl)c31)CCS2`: the TGI was over 100 µM.

Molecule `O=C1CC(NC(=O)C(F)(F)F)c2c(Br)sc(N3CCNCC3)c21` (stereo unspecified) displayed a TGI of over 100 µM.

The test system of another experiment is UACC-257 melanoma. Briefly: inhibition of tumour cell growth, NCI panel, 48 h.
In the case of `CC(=O)NC(Cc1ccc(O)cc1)C(=O)O` (stereo unspecified), the TGI was over 100 µM.

In the case of `O=C1CSC(c2ccc(Cl)cc2)N1c1ccc(Oc2ccc(Cl)cc2)c(Cl)c1` (stereo unspecified), the TGI amounted to 33.2 µM.

Molecule `COC(=O)C([C@H](NC1(c2ccccc2)c2ccccc2-c2ccccc21)C(=O)OC)N(NC(=O)OCc1ccccc1)C(=O)OCc1ccccc1` (mixture of isomers) yielded a TGI of over 100 µM.

With `CC[C@@H]1CC[C@@H]2[C@H](CC[C@]3(C)[C@@H](OC(C)=O)CC[C@@H]23)[C@H]1COC(C)=O`, the TGI amounted to 65.6 µM.

The molecule `Cc1ccc(N=NC(=Nc2ccccc2)c2ccc(N(CCC#N)CCC#N)cc2)cc1` displayed a TGI of 54 µM.

For the molecule `O=c1ccc(-c2ccccc2)n[nH]1`, the TGI was over 100 µM.
